{"source": "paper PMC10058761", "about": "“Heart-Type Fatty Acid Binding Protein Binds Long-Chain Acylcarnitines and Protects against Lipotoxicity” (International Journal of Molecular Sciences, 2023)", "key": {"in vitro": {"assay": "in vitro", "settings": "human", "description": "PANC-1 (ATCC® CRL-1469™) pancreatic epithelial carcinoma cells were obtained from ATCC® (Manassas, VA, USA). PANC-1 cells were chosen as they are suitable for transfection and are characterized by low endogenous expression levels of FABP3. The cells were grown in Dulbecco’s Modified Eagle’s Medium (DMEM) supplemented with 10% (v/v) fetal bovine serum (FBS) and 1% (v/v) penicillin/streptomycin (Pen/Strep) at 37 °C in a humidified incubator with 5% CO2. All reagents for cell maintenance were purchased from Thermo Fisher Scientific. For experiments, PANC-1 cells were seeded at density 1 × 10^5 cells∙mL^−1 (100 μL per well) in the 96-well plate. Cells were left to attach to the plate overnight. Briefly, before the experiment, PANC-1 cells in 96-well plates were washed with Hanks’ Balanced Salt Solution (HBSS) several times. For all cell experiments, serum-free DMEM media were used.\nBriefly, the cell media were removed from the wells. A solution of MTT was added to each well at the concentration of 1 mg∙mL^−1. The plate was incubated for 2 h at 37 °C. Then the MTT solution was removed and 100 μL of isopropyl alcohol was added to each well to dissolve the formazan crystals produced by living cells. The plate was then measured by the Hidex plate reader (Hidex Oy, Turku, Finland)."}, "[1]": {"assay": "LCAC cytotoxicity assay (MTT) in FABP3-overexpressing PANC-1 cells", "assay_type": "cell-based", "settings": "human, 40 μM C16:0-carnitine, cells transfected with the FABP3 plasmid, read-out: cell viability", "excerpt": "Cells were left to attach to the plate overnight.\nBriefly, the cell media were removed from the wells.\nNext, we tested whether overexpression of FABP3 could result in protective effects regarding the cell viability of the PANC-1 cells. The commercially available FuGENE® HD transfection reagent (Promega Corporation, Madison, WI, USA) was mixed with the FABP3 (NM_010174) mouse tagged ORF clone plasmid (OriGene Technologies, Inc., Rockville, MD, USA) in a 4:1 ratio for transfection according to the manufacturer’s protocol. Transfection was performed for 24 h in 6-well plates. To ensure transfection efficiency, quantitative PCR (qPCR) and Western blot analysis were performed (see Figures S52 and S53). Transfected PANC-1 cells were transferred to 96-well plates and further examined for C16:0-carnitine toxicity at various concentrations as previously described. The obtained results were compared to the effects in native cells."}, "human FABP3 [2]": {"target": "T1, human FABP3 (Homo sapiens, UniProt P05413)", "T1 construct": "His-tag (N); TEV cleavage site (N); made in house; host or cells: E. coli BL21(DE3)", "T1 sequence (P05413 whole entry)": "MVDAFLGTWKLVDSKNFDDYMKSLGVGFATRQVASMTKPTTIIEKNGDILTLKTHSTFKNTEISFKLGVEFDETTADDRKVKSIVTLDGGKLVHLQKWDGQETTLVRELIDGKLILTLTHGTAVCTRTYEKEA", "assay": "Ligand binding by NMR (2D 1H-15N HSQC chemical shift perturbations)", "settings": "KPi buffer pH 7.6", "procedure": "NMR spectra were acquired on the 600 MHz Bruker Avance Neo spectrometer (Bruker Biospin GmbH, Rheinstetten, Germany) equipped with a 5-mm quadruple-resonance CryoProbe (QCI) with z-gradients. […] All experiments were performed in KPi buffer without or with TX and with the addition of 7% (v/v) D2O, 0.03% (v/v) NaN3, and 0.01% (v/v) SigmaFAST EDTA-free protease inhibitor cocktail to prevent protein degradation. The amount of organic solvent (ethanol or DMSO-d6) was below 2% (v/v) in each experiment.\n3D HNCA, 3D HNCO, 3D HN(CA)CO, and 3D CBCA(CO)NH spectra were acquired for the backbone assignment. 3D [^1H,^1H]-nuclear Overhauser spectroscopy (NOESY)-^15N-heteronuclear single-quantum correlation (HSQC) spectrum was acquired using a mixing time of 100 ms and also used in the backbone assignment. 2D ^1H-^15N HSQC spectra were acquired for evaluation of the CSPs caused by the lipid binding. Chemical shifts were referenced internally to the residual water signal at 4.70 ppm relative to the 4,4-dimethyl-4-silapentane-1-sulfonic acid (DSS). […] Other complexes were analyzed by analogy and with the help of 3D [^1H-^1H]-NOESY-^15N-HSQC. All spectra were processed in TopSpin v. 4.1.1. (Bruker, Billerica, MA, USA) and analyzed in CARA 1.9.1. software. Residue-specific protein backbone amide assignment was performed based on the published chemical shifts. CSPs, Δδ, were calculated using Equation (1) with the scaling factor, α, which was set to 0.1 [67, 68]. (1) Δδ=1/2[δH2+α·δN^2],"}, "human FABP3 [3]": {"target": "T1, human FABP3", "assay": "ITC assay of ligand binding to apo-FABP3", "settings": "KPi pH 7.6, 25 °C, without TX; for N (stoichiometry): protein assumed 100% active and delipidated", "procedure": "ITC experiments were carried out on the MicroCal™ iTC200 instrument (Malvern Instruments Ltd., Malvern, UK). Experiments were performed in KPi buffer without and with 0.1% (v/v) TX supplement. […] Experiments for the determination of the ΔCp were performed at three different temperatures: 16, 25, and 37 °C. […] Every titration started with a small 0.3 μL injection introduced to compensate for the diffusion effects. One of the following injection profiles was chosen based on the activity of the ligand and binding heat released: 1.2 μL × 32 or 1.5 μL × 26—all with 120 s time spacing between every injection and 600 rpm. Each ligand was titrated at least two times. The reference baseline consisting of small peaks of identical size (titration of the corresponding ligand into the buffer) was subtracted from the data before fitting to correct for the heat of the ligand dilution. The first injection was excluded from each dataset. The final data were fitted to a theoretical titration curve (one set of sites fitting model) using MicroCal Origin 7 SR4 software (OriginLab, Northampton, MA, USA)."}, "human FABP3 [4]": {"target": "T1, human FABP3", "assay": "ITC determination of heat capacity change at 16, 25 and 37 °C", "assay_type": "binding", "settings": "KPi without TX; ΔH at 16, 25, 37 °C, linear regression", "excerpt": "Heat capacity changes, ΔCp, are important indicators of the structural changes during ligand-to-protein binding in various environmental conditions and may reflect changes in the static and dynamic properties of the protein [33, 34]. Moreover, it may represent interactions with extra supplements, such as salts and detergents, and larger processes, such as changes in protein folding, solvent-accessible surface area (SASA), or protonation states within the active site. […] Thermodynamic parameters for the remaining LCFAs were determined in the KPi + TX buffer, while LCACs were tested in the KPi buffer without any additive. Figure 7 represents an example of the overlays of the ITC experiments for C18:1(n-9)c and the corresponding LCAC performed at the following temperatures: 16, 25, and 37 °C.\n(§1) ITC experiments were carried out on the MicroCal™ iTC200 instrument (Malvern Instruments Ltd., Malvern, UK). Experiments were performed in KPi buffer without and with 0.1% (v/v) TX supplement. All titrations except for the determination of the heat capacity, ΔCp, were performed at 25 °C using 20–120 μM protein. Experiments for the determination of the ΔCp were performed at three different temperatures: 16, 25, and 37 °C. 280 μL of the protein solution in the sample cell were titrated with the ligand solution diluted to 200–1200 μM depending on the enzyme concentration (to achieve a 1:10 or 1:5 ratio). Every titration started with a small 0.3 μL injection introduced to compensate for the diffusion effects. One of the following injection profiles was chosen based on the activity of the ligand and binding heat released: 1.2 μL × 32 or 1.5 μL × 26—all with 120 s time spacing between every injection and 600 rpm. Each ligand was titrated at least two times. The reference baseline consisting of small peaks of identical size (titration of the corresponding ligand into the buffer) was subtracted from the data before fitting to correct for the heat of the ligand dilution. The first injection was excluded from each dataset. The final data were fitted to a theoretical titration curve (one set of sites fitting model) using MicroCal Origin 7 SR4 software (OriginLab, Northampton, MA, USA)."}, "human FABP3 [5]": {"target": "T1, human FABP3", "assay": "ITC competitive binding experiments (FABP3 pre-saturated with a competing ligand)", "settings": "KPi, 25 °C", "procedure": "as §1, with “The final data were fitted to a theoretical titration curve (one set of sites fitting model) using MicroCal Origin 7 SR4 software (OriginLab, Northampton, MA, USA).” left out"}, "[6]": {"settings": "FABP3 saturated with C8:0, titrated with C18:1(n-9)t-carnitine, Competitive Binding model"}, "[7]": {"settings": "FABP3 saturated with C8:0, titrated with C18:1(n-9)t-carnitine, One Set of Sites model"}}, "note": "Values joined by “and” are separate entries in the source; they are usually repeats but may differ in a detail not shown here. Identical values can stand only once.", "data": [{"smiles": "CCCCCCCCCCCCCCCC(=O)O[C@H](CC(=O)[O-])C[N+](C)(C)C", "note": "[C16:0-carnitine]", "values": [{"measurement": "CC50 at 4 h", "setting": "in vitro", "result": "~25", "unit": "µM"}, {"measurement": "viability at 4 h, 40 μM", "setting": "in vitro", "result": "< 20", "unit": "%"}, {"measurement": "viability at 4 h, 40 μM", "setting": "[1]", "result": "~70", "unit": "%"}, {"measurement": "binding to FABP3 by NMR (CSPs in 2D 1H-15N HSQC)", "setting": "human FABP3 [2]", "result": "did not show any significant CSPs"}]}, {"smiles": "CCCCCCCC/C=C\\CCCCCCCC(=O)O[C@H](CC(=O)O)C[N+](C)(C)C.[Cl-]", "note": "[C18:1(n-9)c-carnitine, oleoylcarnitine]", "values": [{"measurement": "Kd", "setting": "human FABP3 [3]", "result": "2.21 ± 0.07", "unit": "µM"}, {"measurement": "ΔG", "setting": "human FABP3 [3]", "result": "-7.72 ± 0.01", "unit": "kcal/mol"}, {"measurement": "ΔH", "setting": "human FABP3 [3]", "result": "-4.6 ± 0.2", "unit": "kcal/mol"}, {"measurement": "−TΔS", "setting": "human FABP3 [3]", "result": "-3.1 ± 0.2", "unit": "kcal/mol"}, {"measurement": "N (stoichiometry)", "setting": "human FABP3 [3]", "result": 0.5}, {"measurement": "ΔCp", "setting": "human FABP3 [4]", "result": "−0.09 ± 0.01", "unit": "kcal∙mol^−1∙K^−1"}, {"measurement": "binding to FABP3 by NMR (CSPs in 2D 1H-15N HSQC)", "setting": "human FABP3 [2]", "result": "strong CSPs indicative of binding"}]}, {"smiles": "CCCCCCCC/C=C/CCCCCCCC(=O)O[C@H](CC(=O)O)C[N+](C)(C)C", "note": "[C18:1(n-9)t-carnitine, elaidoylcarnitine]", "values": [{"measurement": "Kd", "setting": "human FABP3 [3]", "result": "2.2 µM and 2.19 µM"}, {"measurement": "ΔG", "setting": "human FABP3 [3]", "result": "-7.72 ± 0.02", "unit": "kcal/mol"}, {"measurement": "N (stoichiometry)", "setting": "human FABP3 [3]", "result": 0.5}, {"measurement": "-TΔS", "setting": "human FABP3 [5]; [6]", "result": "0.32 ± 0.09", "unit": "kcal/mol"}, {"measurement": "ΔG", "setting": "human FABP3 [5]; [6]", "result": "-11.7 ± 0.1", "unit": "kcal/mol"}, {"measurement": "ΔH", "setting": "human FABP3 [5]; [6]", "result": "-12.0 ± 0.3", "unit": "kcal/mol"}, {"measurement": "-TΔS", "setting": "human FABP3 [5]; [7]", "result": "-5.8 ± 0.3", "unit": "kcal/mol"}, {"measurement": "Kd", "setting": "human FABP3 [5]; [7]", "result": "1.8 ± 0.2", "unit": "µM"}, {"measurement": "ΔG", "setting": "human FABP3 [5]; [7]", "result": "-7.85 ± 0.08", "unit": "kcal/mol"}, {"measurement": "ΔH", "setting": "human FABP3 [5]; [7]", "result": "-2.0 ± 0.2", "unit": "kcal/mol"}, {"measurement": "binding heat effects in competition titration", "setting": "human FABP3 [5]; FABP3 saturated with C10:0, titrated with C18:1(n-9)t-carnitine", "result": "no binding heat effects were detected"}, {"measurement": "ΔCp", "setting": "human FABP3 [4]", "result": "−0.14 ± 0.01", "unit": "kcal∙mol^−1∙K^−1"}, {"measurement": "binding to FABP3 by NMR (CSPs in 2D 1H-15N HSQC)", "setting": "human FABP3 [2]", "result": "strong CSPs indicative of binding"}]}, {"smiles": "CC/C=C\\C/C=C\\C/C=C\\C/C=C\\C/C=C\\CCCC(=O)O[C@H](CC(=O)O)C[N+](C)(C)C", "note": "[C20:5(n-3)c-carnitine, EPA-carnitine]", "values": [{"measurement": "Kd", "setting": "human FABP3 [3]", "result": "14.83 ± 0.08", "unit": "µM"}, {"measurement": "ΔG", "setting": "human FABP3 [3]", "result": "-6.61 ± 0.03", "unit": "kcal/mol"}, {"measurement": "ΔH", "setting": "human FABP3 [3]", "result": "-2.43 ± 0.09", "unit": "kcal/mol"}, {"measurement": "−TΔS", "setting": "human FABP3 [3]", "result": "-4.19 ± 0.06", "unit": "kcal/mol"}, {"measurement": "N (stoichiometry)", "setting": "human FABP3 [3]", "result": 1.0}, {"measurement": "ΔCp", "setting": "human FABP3 [4]", "result": "−0.07 ± 0.01", "unit": "kcal∙mol^−1∙K^−1"}, {"measurement": "binding to FABP3 by NMR (CSPs in 2D 1H-15N HSQC)", "setting": "human FABP3 [2]", "result": "strong CSPs indicative of binding"}]}]}
